Laboratory results taken from PubChem BioAssay AID248 (DTP/NCI, 2004).
Where “and” joins values, the source holds several entries; their conditions need not be identical. Equal entries are not always repeated. Inconclusive results and toxic doses are left out. Cut-off read from the data, not from the text of the source: active = T/C of 150% or more; inactive = T/C below 125%.

Tested on: L1210 leukemia ip in BDF1 mice, survival T/C
Assay: NCI In Vivo Anticancer Drug Screen. Data for tumor model L1210 Leukemia (intraperitoneal) in B6D2F1 (BDF1) mice
Conditions: endpoint: mean survival time, higher = longer survival
In short: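 Each compound was tested against a transplantable tumor grown in mice. The endpoint was survival, with treated animals benchmarked against vehicle controls as a simple ratio.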

[1] = dose: 100.0 mg/kg/injection, schedule: Q04DX003 (ip), vehicle: Klucel (hydroxypropylcellulose) (HPC)
[2] = dose: 200.0 mg/kg/injection, schedule: Q04DX003 (ip), vehicle: Klucel (hydroxypropylcellulose) (HPC)
[3] = dose: 400.0 mg/kg/injection, schedule: Q04DX003 (ip), vehicle: Klucel (hydroxypropylcellulose) (HPC)
[4] = dose: 100.0 mg/kg/injection, schedule: Q01DX009 (ip), vehicle: Klucel (hydroxypropylcellulose) (HPC)
[5] = dose: 200.0 mg/kg/injection, schedule: Q01DX009 (ip), vehicle: Klucel (hydroxypropylcellulose) (HPC)
[6] = dose: 400.0 mg/kg/injection, schedule: Q01DX009 (ip), vehicle: Klucel (hydroxypropylcellulose) (HPC)
[7] = dose: 100.0 mg/kg/injection, schedule: Q04DX003 (ip), vehicle: saline
[8] = dose: 200.0 mg/kg/injection, schedule: Q04DX003 (ip), vehicle: saline
[9] = dose: 400.0 mg/kg/injection, schedule: Q04DX003 (ip), vehicle: saline
[10] = dose: 100.0 mg/kg/injection, schedule: Q01DX009 (ip), vehicle: saline with Tween-80
[11] = dose: 100.0 mg/kg/injection, schedule: Q04DX003 (ip), vehicle: saline with Tween-80
[12] = dose: 200.0 mg/kg/injection, schedule: Q01DX009 (ip), vehicle: saline with Tween-80
[13] = dose: 200.0 mg/kg/injection, schedule: Q04DX003 (ip), vehicle: saline with Tween-80
[14] = dose: 400.0 mg/kg/injection, schedule: Q01DX009 (ip), vehicle: saline with Tween-80
[15] = dose: 400.0 mg/kg/injection, schedule: Q04DX003 (ip), vehicle: saline with Tween-80
[16] = dose: 50.0 mg/kg/injection, schedule: Q01DX001 (ip), vehicle: saline with Tween-80
[17] = dose: 100.0 mg/kg/injection, schedule: Q01DX001 (ip), vehicle: saline with Tween-80
[18] = dose: 200.0 mg/kg/injection, schedule: Q01DX001 (ip), vehicle: saline with Tween-80
[19] = dose: 100.0 mg/kg/injection, schedule: Q01DX001 (ip), vehicle: other
[20] = dose: 200.0 mg/kg/injection, schedule: Q01DX001 (ip), vehicle: other
[21] = dose: 100.0 mg/kg/injection, schedule: Q04DX002 (ip), vehicle: Klucel (hydroxypropylcellulose) (HPC)
[22] = dose: 200.0 mg/kg/injection, schedule: Q04DX002 (ip), vehicle: Klucel (hydroxypropylcellulose) (HPC)

Measured: T/C

CC(=O)OCCCCBr
inactive: dose: 100.0 mg/kg/injection, schedule: Q01DX009 (ip), vehicle: saline 100 % of control | [1] 98 % of control | dose: 200.0 mg/kg/injection, schedule: Q01DX009 (ip), vehicle: saline 98 % of control | [2] 91 % of control | dose: 400.0 mg/kg/injection, schedule: Q01DX009 (ip), vehicle: saline 98 % of control | [3] 94 % of control

CC1NC(=O)NC1=O (centres undefined)
inactive: [4] 103 % of control | [1] 98 % of control | [5] 95 % of control | [2] 98 % of control | [6] 100 % of control | [3] 101 % of control

Cc1cccc2c(=O)c3ccccc3oc12
inactive: dose: 100.0 mg/kg/injection, schedule: Q01DX001 (ip), vehicle: saline 98 % of control and 104 % of control | dose: 200.0 mg/kg/injection, schedule: Q01DX001 (ip), vehicle: saline 95 % of control and 101 % of control | dose: 400.0 mg/kg/injection, schedule: Q01DX001 (ip), vehicle: saline 93 % of control and 97 % of control

COC1OC(CO)C(O)C([N+](=O)[O-])C1O (centres undefined)
inactive: [7] 98 % of control | [8] 102 % of control | [9] 105 % of control

c1ccc(C2SCCSCCS2)cc1
inactive: dose: 25.0 mg/kg/injection, schedule: Q01DX009 (ip), vehicle: saline with Tween-80 92 % of control | dose: 50.0 mg/kg/injection, schedule: Q01DX009 (ip), vehicle: saline with Tween-80 86 % of control | [10] 86 % of control | [1] 102 % of control | [2] 100 % of control | [3] 92 % of control

O=C(NCCCl)Nc1cccc2c(O)cccc12
inactive: [1] 98 % of control | [2] 96 % of control | [3] 107 % of control

COC(=O)C(CSCSC)NC(=O)/C=C/c1cc(OC)ccc1OC (centres undefined)
inactive: [10] 87 % of control | [11] 94 % of control | [12] 93 % of control | [13] 88 % of control | [14] 93 % of control | [15] 94 % of control

CSc1ccc(NC(=O)C(C)Oc2ccccc2)cc1 (centres undefined)
inactive: [16] 95 % of control | [17] 87 % of control and 92 % of control | [10] 97 % of control and 102 % of control | dose: 100.0 mg/kg/injection, schedule: Q04DX002 (ip), vehicle: saline with Tween-80 94 % of control and 96 % of control | [18] 87 % of control | [12] 93 % of control and 102 % of control | dose: 200.0 mg/kg/injection, schedule: Q04DX002 (ip), vehicle: saline with Tween-80 96 % of control and 105 % of control | dose: 400.0 mg/kg/injection, schedule: Q01DX001 (ip), vehicle: saline with Tween-80 87 % of control and 90 % of control | [14] 95 % of control and 98 % of control | dose: 400.0 mg/kg/injection, schedule: Q04DX002 (ip), vehicle: saline with Tween-80 96 % of control and 101 % of control

CN(/N=N/c1nc[nH]c1C(=O)NN)C1CCCCC1
inactive: dose: 50.0 mg/kg/injection, schedule: Q01DX001 (ip), vehicle: other 95 % of control | [19] 101 % of control | [20] 98 % of control

CCOC(=O)C1(Cc2ccccc2)CCCC1=O (centres undefined)
inactive: dose: 100.0 mg/kg/injection, schedule: Q01DX001 (ip), vehicle: carboxymethylcellulose (CMC) 107 % of control | dose: 200.0 mg/kg/injection, schedule: Q01DX001 (ip), vehicle: carboxymethylcellulose (CMC) 96 % of control | dose: 400.0 mg/kg/injection, schedule: Q01DX001 (ip), vehicle: carboxymethylcellulose (CMC) 96 % of control

c1ccc(C2c3ccccc3C(c3ccccc3)(c3ccccc3)c3ccccc32)cc1
inactive: [19] 91 % of control | [20] 91 % of control | dose: 400.0 mg/kg/injection, schedule: Q01DX001 (ip), vehicle: other 91 % of control

CC1=CSCC(=O)N1
inactive: [10] 97 % of control | [12] 101 % of control | [14] 105 % of control

OC1C2C=CC1C1C=CC1=CC2 (centres undefined)
inactive: [16] 103 % of control | [17] 108 % of control | [18] 98 % of control

COc1cc(/C=N\N=C\c2ccc(OC(=O)c3cc(OC)c(OC)c(OC)c3)c(OC)c2)ccc1OC(=O)c1cc(OC)c(OC)c(OC)c1
inactive: [4] 95 % of control | [5] 95 % of control | [6] 102 % of control

O=[N+]([O-])c1ccc([S][Pb]([c]2ccccc2)([c]2ccccc2)[c]2ccccc2)cc1
inactive: [21] 111 % of control | [22] 93 % of control

NNC(=O)c1c[nH]c2ccccc2c1=O
inactive: dose: 12.5 mg/kg/injection, schedule: Q01DX009 (ip), vehicle: Klucel (hydroxypropylcellulose) (HPC) 95 % of control | dose: 25.0 mg/kg/injection, schedule: Q01DX009 (ip), vehicle: Klucel (hydroxypropylcellulose) (HPC) 90 % of control | dose: 50.0 mg/kg/injection, schedule: Q01DX009 (ip), vehicle: Klucel (hydroxypropylcellulose) (HPC) 94 % of control

CCOC(=O)NCc1cnccn1
inactive: [7] 100 % of control and 102 % of control | [8] 95 % of control and 100 % of control | [9] 104 % of control

Oc1ccccc1C=NCCN1CC1.Oc1ccccc1C=NCCN1CC1.[Cu]
inactive: dose: 6.25 mg/kg/injection, schedule: Q01DX001 (ip), vehicle: Klucel (hydroxypropylcellulose) (HPC) 88 % of control | dose: 12.5 mg/kg/injection, schedule: Q01DX001 (ip), vehicle: Klucel (hydroxypropylcellulose) (HPC) 95 % of control | dose: 25.0 mg/kg/injection, schedule: Q01DX001 (ip), vehicle: Klucel (hydroxypropylcellulose) (HPC) 95 % of control

CCCCOC1CCS(=O)(=O)C1 (centres undefined)
inactive: dose: 100.0 mg/kg/injection, schedule: Q04DX003 (ip), vehicle: other 101 % of control | dose: 200.0 mg/kg/injection, schedule: Q04DX003 (ip), vehicle: other 101 % of control | dose: 400.0 mg/kg/injection, schedule: Q04DX003 (ip), vehicle: other 94 % of control

CC1CCC(OC(C[N+](=O)[O-])C(Cl)(Cl)Cl)CC1 (centres undefined)
inactive: [10] 93 % of control | [11] 106 % of control | [12] 91 % of control | [13] 101 % of control | [14] 90 % of control | [15] 104 % of control

C=CCN(CC=C)C(=O)Nc1ccc(C(=O)N/N=C/c2cccc(OC)c2OC)cc1
inactive: [4] 103 % of control and 88 % of control | [21] 95 % of control and 105 % of control | [5] 100 % of control and 88 % of control | [22] 94 % of control and 101 % of control | [6] 95 % of control | dose: 400.0 mg/kg/injection, schedule: Q04DX002 (ip), vehicle: Klucel (hydroxypropylcellulose) (HPC) 97 % of control and 105 % of control

COc1ccc(-c2coc3cc(O)ccc3c2=O)cc1
inactive: [11] 96 % of control | [13] 96 % of control | [15] 96 % of control

CC(C)=CCNC(=O)NS(=O)(=O)c1ccc(C)cc1
inactive: dose: 50.0 mg/kg/injection, schedule: Q04DX002 (ip), vehicle: Klucel (hydroxypropylcellulose) (HPC) 104 % of control | [4] 100 % of control | [21] 89 % of control | [5] 107 % of control | [22] 93 % of control | [6] 96 % of control

c1cc2c3c(c1)CCC3CCC2 (centres undefined)
inactive: [11] 90 % of control | [13] 95 % of control | [15] 97 % of control
